The conditions of data set [1]: for AUC(0-72): 0-72 h; for TMAX: noncompartmental analysis; for time of peak lithium plasma level (FIG. 2-3): post-dose.
Experimental: (§1) Male Sprague Dawley rats weighing 200-250 grams were housed in a vivarium with a 12 hour light-dark cycle. The rats were allowed to acclimate for a period of one week before any experiments were carried out, and were allowed free access to food and water throughout the experiment.
(§2) Animals in each treatment group were euthanized at 2, 24, 48, and 72 hours (n=3/time point) and blood was collected by cardiac puncture and carefully perfused with a pressure-controlled pump to maintain microvasculature integrity before removing brain tissue. Blood was centrifuged at 1600×g at room temperature for 10 minutes and plasma was separated. A 500 μl aliquot was diluted 10 fold in a 5% TCA and 10% IPA solution, vortexed and allowed to sit for 10 minutes in order to precipitate proteins. These aliquots were centrifuged at 3000×g for 30 minutes and the supernatant was transferred to clean tubes prior to measuring lithium content using atomic absorption spectroscopy (AAS). Brains were rinsed with PBS, weighed, and an equal volume of concentrated HNO3 was added. The brains were heated in nitric acid solution for 1 hour, allowed to cool to room temperature, then centrifuged at 3000×g for 1 hour. The supernatant was removed and diluted 10 fold in 10% IPA prior to measuring lithium content using AAS.
(§3) The reported parameters include CMAX, TMAX, area under curve (AUC), and apparent terminal half-life (HL_Lambda_z).
(§4) Lithium was measured using atomic absorption spectroscopy (AAS) (Shimadzu AA-6200; Shimadzu Scientific Instruments, Inc., Columbia, Md.). Peak height measurements were carried out referring to values obtained for standards of known concentrations. Lithium measurements were plotted using GraphPad PRISM software (GraphPad Software, Inc., La Jolla, Calif.) as mean±SEM and two tailed t-tests were used to assess the statistical significance at each time point for the pharmacokinetic curves. The criterion for rejection of the null hypothesis was p<0.05.
The conditions of data set [2]: for AUC(0-72): 0-72 h; for TMAX: noncompartmental analysis; for time of peak brain lithium level (FIG. 4-5): post-dose.
Experimental: as §1, §2, §3, §4
Data set [3] is described as follows: in vivo. To be noted: male, Sprague-Dawley, rat, plasma, oral, 4 mEq/kg.
Experimental: as §1, §2, §3, §4
A short description of data set [4]: in vivo. The following applies: male, Sprague-Dawley, rat, brain, oral, 4 mEq/kg.
Experimental: as §1, §2, §3, §4
The conditions of data set [5]: rats; carbonate vs chloride vs orotate; cited from earlier work.
For data set [6] the following is noted: previous reports; cited from earlier work.
The conditions of data set [7]: cited from earlier work.
The mark [8] stands for this setting: Blood, rats, 4 mEq/kg oral gavage.
The mark [9] stands for this setting: Brain, rats, 4 mEq/kg oral gavage.

Structures are written as SMILES. Where two headings read alike, the source gives them in different places.

For `CC(O)C(=O)[O-].[Li+]` (stereo not drawn) [Lithium Lactate, lithium lactate], in data set [1] (setting [8]), the CMAX turned out to be 4.54 µg/mL, the “HL_Lambda_z (apparent terminal half-life)” value came to 6.9 h, the “AUC(0-72)” value was determined as 157.2 µg·h/mL and the TMAX was 24 h. In data set [1] (plasma), the “lithium plasma level by 48 hours” value is listed as “about 0.5 μg/ml” and the “lithium plasma level by 72 hours” value is recorded as “around 0 μg/ml”. Besides, in data set [1] (plasma, rats), the “time of peak lithium plasma level (FIG. 2-3)” value (“time … (FIG. 2-3)” for short) was 24 h. In data set [2] (setting [9]), the “HL_Lambda_z (apparent terminal half-life)” value amounted to 13.0 h, the “AUC(0-72)” value was 152.0 µg·h/g and the TMAX was determined as 24 h. Further, in data set [2] (brain), the “brain lithium level at 24 hours” value was “around 4 μg/ml” and the “brain lithium level by 72 hours” value is “negligible levels”. The “time of peak brain lithium level (FIG. 4-5)” value (“time … (FIG. 4-5)” below) in data set [2] (brain, rats) is 24 h.

In the case of `O=C([O-])c1ccccc1O.[Li+]` [Lithium Salicylate, lithium salicylate], in data set [1] (setting [8]), the CMAX came out at 2.21 µg/mL, the “AUC(0-72)” value stood at 121.8 µg·h/mL and the TMAX was found to be 24 h. Further, in data set [1] (plasma, rats), the “time … (FIG. 2-3)” value was “around 48 hours”. In addition, in data set [2] (setting [9]), the “AUC(0-72)” value worked out at 153.1 µg·h/g and the TMAX came out at 48 h. For the same compound, the “time … (FIG. 4-5)” value in data set [2] (brain, rats) is 48 h. In data set [3], this compound showed a concentration at 24 h of 2100 ng/mL, a concentration at 48 h of 2000 ng/mL and a concentration at 72 h of roughly 250 ng/mL. In data set [4], the concentration at 24 h was roughly 2500 ng/mL, the concentration at 48 h was 3000 ng/mL and the concentration at 72 h amounted to 2000 ng/mL.

Take `O=C([O-])[O-].[Li+].[Li+]` [lithium carbonate, reference compound]: the “peak lithium plasma level relative to lithium lactate” value in data set [1] (plasma, 24 hours) is reported as “about 2.5 times”. For the same compound, the “lithium plasma level at 24 hours (peak)” value in data set [1] (plasma, 24 hours post-dose) is “about 12 μg/ml”. Further, in data set [1] (plasma), the “lithium plasma level by 48 hours” value is “about 0.5 μg/ml” and the “lithium plasma level by 72 hours” value was “around 0 μg/ml”. Also, in data set [1] (plasma, rats), the “time … (FIG. 2-3)” value was found to be 24 h. In addition, in data set [2] (brain), the “brain lithium level at 24 hours” value worked out at 8 µg/mL and the “brain lithium level by 72 hours” value is on record as “about 0.5 μg/ml”. Further, in data set [2] (brain, 48 hours), the “brain lithium level at 48 hours” value is reported as “about 3.8 μg/ml”. Moreover, the “time … (FIG. 4-5)” value in data set [2] (brain, rats) turned out to be 24 h. Further, the “differences in uptake, distribution and excretion of the lithium ion” value (“differences in uptake” for short) in data set [5] is “no differences”. For the same compound, the time to elimination in data set [6] is no more than 48 h.

As for `[Cl-].[Li+]` [lithium chloride], the “differences in uptake” value in data set [5] was “no differences”.

Turning to `O=C([O-])c1cc(=O)[nH]c(=O)[nH]1.[Li+]` [lithium orotate], the “differences in uptake” value in data set [5] was “no differences”.

With `[Li]` [lithium], the elimination half-life in data set [7] (acute treatment) was 24 h. In data set [7] (in vivo), the “CNS levels of lithium relative to plasma levels” value was “approximately 40%”; the “serum levels considered toxic” value was no less than 2.0; the “serum levels that increase the likelihood of toxicity and detrimental effects” value is “greater than 1.5 mEq/l”. Besides, the “time to peak plasma levels after overdoses” value in data set [7] (overdose) is 72 h. Moreover, the elimination half-life in data set [7] (some chronically treated individuals) was no more than 60 h.

The values above are taken from patent publication US9744189B1, “Compositions of lithium salts and methods of use” (University of South Florida, priority 2013, dated 2017).
